Experimental data from patent US8546414B2, “Ion channel modulators and methods of use” (Vertex Pharmaceuticals Incorporated, priority 2004, dated 2013).

How the values were obtained:
Format in all cases: cell-based
CaV2.2 = target: T1, CaV2.2 (Homo sapiens, UniProt Q00975); assay: VIPR optical membrane potential assay with electrical stimulation, CaV2.2; settings: Table 9, CaV 2.2 receptors
T1 construct: expressed in transfected cells; host or cells: HEK293
In short: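 HEK293 cells stably expressing CaV2.2 stained with CC2-DMPE/DiSBAC2(3) voltage-sensitive dyes (10 μM final CC2-DMPE, 30 min, RT), then compound added and cells electrically stimulated for 3-5 s. Read-out: background-subtracted 460/580 nm emission ratio; response R=Rf/Ri (post- vs pre-stimulus ratio); antagonism seen as reduced response.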

NaV1.3 = target: T2, NaV1.3 (Homo sapiens, UniProt Q9NY46); assay: VIPR optical membrane potential assay with electrical stimulation, NaV1.3; settings: Table 9, NaV 1.3 receptors
T2 construct: expressed in transfected cells; host or cells: HEK293
In short: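 HEK293 cells stably expressing NaV1.3, stained with CC2-DMPE (10 μM final) then DiSBAC2(3) with ABSC1, 30 min each at RT; compounds added with oxonol. Electrical stimulation for 3 s; 460/580 nm background-subtracted emission ratio Rf/Ri, normalised to tetracaine (positive) and untreated (negative) controls.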

NaV1.8 = NaV1.8 (Homo sapiens, UniProt Q9Y5Y9); assay: VIPR optical membrane potential assay, NaV1.8 (other subtypes in an analogous mode); settings: Table 9, NaV 1.8 receptors
Procedure: Antagonist properties of test compounds were assessed as follows. Cells expressing the NaV of interest were placed into microtiter plates. After an incubation period, the cells were stained with fluorescent dyes sensitive to the transmembrane potential. The test compounds were added to the microtiter plate. The cells were stimulated with either chemical or electrical means to evoke a NaV dependent membrane potential change from unblocked channels, which was detected and measured with trans-membrane potential-sensitive dyes. Antagonists were detected as a decreased membrane potential response to the stimulus.
24 hours before the assay on VIPR, CHO cells endogenously expressing a NaV 1.2 type voltage-gated NaV are seeded in 96-well poly-lysine coated plates at 60,000 cells per well. […] Plates are incubated in the dark for 30 minutes at room temperature. • 4) While the cells are being stained with coumarin, a […] oxonol solution in BS#2 is prepared. […] As before, the residual volume should be 40 μL. • 6) Upon removing the bath, the cells are loaded with 80 μL of the DiSBAC2(3) solution, after which test compound, dissolved in DMSO, is added to achieve the desired test concentration to each well from the drug addition plate and mixed thoroughly. The volume in the well should be roughly 121 μL. The cells are then incubated for 20-30 minutes. • 7) Once the incubation is complete, the cells are ready to be assayed on VIPR® with a sodium addback protocol. 120 μL of Bath solution #1 is added to stimulate the NaV dependent depolarization. […] tetracaine was used as an antagonist positive control for block of the NaV channel. Analysis of VIPR® Data:
The following is an example of how NaV1.3 inhibition activity is measured using the optical membrane potential method#2. Other subtypes are performed in an analogous mode in a cell line expressing the NaV of interest.

NaV1.8, sequence (Q9Y5Y9 whole entry): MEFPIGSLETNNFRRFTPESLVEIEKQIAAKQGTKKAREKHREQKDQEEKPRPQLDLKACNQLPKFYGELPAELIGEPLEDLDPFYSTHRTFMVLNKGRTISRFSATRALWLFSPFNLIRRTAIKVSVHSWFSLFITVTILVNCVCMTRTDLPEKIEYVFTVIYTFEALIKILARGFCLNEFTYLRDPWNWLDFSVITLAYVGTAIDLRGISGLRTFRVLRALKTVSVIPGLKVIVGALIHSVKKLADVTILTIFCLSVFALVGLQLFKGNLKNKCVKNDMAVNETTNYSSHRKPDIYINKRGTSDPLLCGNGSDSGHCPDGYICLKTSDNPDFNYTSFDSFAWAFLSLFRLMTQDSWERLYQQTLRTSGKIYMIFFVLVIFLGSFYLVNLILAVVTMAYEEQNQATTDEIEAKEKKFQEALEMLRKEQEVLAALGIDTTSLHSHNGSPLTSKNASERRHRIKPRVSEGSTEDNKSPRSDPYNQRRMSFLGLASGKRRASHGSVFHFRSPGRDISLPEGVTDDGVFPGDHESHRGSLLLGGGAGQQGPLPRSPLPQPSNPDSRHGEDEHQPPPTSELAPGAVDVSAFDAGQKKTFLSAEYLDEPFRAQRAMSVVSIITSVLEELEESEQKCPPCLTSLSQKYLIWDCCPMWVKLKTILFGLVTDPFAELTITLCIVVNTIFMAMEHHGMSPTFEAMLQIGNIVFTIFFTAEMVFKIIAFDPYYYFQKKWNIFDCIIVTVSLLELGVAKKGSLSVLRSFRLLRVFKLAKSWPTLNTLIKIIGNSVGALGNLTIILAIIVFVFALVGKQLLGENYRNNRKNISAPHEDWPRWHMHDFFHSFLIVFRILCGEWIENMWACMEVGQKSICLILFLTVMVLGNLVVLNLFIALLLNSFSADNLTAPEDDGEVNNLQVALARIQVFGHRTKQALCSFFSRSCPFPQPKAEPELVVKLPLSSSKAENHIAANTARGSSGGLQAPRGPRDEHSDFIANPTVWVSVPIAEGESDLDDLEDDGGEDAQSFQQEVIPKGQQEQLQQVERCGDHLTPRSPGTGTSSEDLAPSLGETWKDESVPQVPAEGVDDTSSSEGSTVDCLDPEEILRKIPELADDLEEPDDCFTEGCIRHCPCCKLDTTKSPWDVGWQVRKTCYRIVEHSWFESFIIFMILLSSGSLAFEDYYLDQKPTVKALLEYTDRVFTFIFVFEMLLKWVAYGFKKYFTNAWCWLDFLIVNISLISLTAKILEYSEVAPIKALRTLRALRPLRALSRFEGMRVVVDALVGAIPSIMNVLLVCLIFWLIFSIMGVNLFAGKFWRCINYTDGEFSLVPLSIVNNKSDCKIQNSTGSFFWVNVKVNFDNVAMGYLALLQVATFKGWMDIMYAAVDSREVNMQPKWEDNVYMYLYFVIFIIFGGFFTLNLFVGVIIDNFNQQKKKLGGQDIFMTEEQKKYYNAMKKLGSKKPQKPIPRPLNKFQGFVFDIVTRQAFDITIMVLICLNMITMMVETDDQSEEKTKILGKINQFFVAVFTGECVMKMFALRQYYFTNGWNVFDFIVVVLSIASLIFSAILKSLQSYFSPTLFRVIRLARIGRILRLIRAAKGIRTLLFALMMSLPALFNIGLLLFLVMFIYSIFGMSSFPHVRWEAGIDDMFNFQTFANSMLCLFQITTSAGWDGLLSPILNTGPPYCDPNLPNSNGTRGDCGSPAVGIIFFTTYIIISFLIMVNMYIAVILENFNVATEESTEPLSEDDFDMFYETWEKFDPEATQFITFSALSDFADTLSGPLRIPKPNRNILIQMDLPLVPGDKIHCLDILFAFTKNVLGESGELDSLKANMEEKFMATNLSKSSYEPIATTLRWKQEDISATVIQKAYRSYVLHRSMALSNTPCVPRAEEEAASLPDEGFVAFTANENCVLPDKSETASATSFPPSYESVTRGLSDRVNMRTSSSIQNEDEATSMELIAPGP
T2 sequence (Q9NY46 whole entry): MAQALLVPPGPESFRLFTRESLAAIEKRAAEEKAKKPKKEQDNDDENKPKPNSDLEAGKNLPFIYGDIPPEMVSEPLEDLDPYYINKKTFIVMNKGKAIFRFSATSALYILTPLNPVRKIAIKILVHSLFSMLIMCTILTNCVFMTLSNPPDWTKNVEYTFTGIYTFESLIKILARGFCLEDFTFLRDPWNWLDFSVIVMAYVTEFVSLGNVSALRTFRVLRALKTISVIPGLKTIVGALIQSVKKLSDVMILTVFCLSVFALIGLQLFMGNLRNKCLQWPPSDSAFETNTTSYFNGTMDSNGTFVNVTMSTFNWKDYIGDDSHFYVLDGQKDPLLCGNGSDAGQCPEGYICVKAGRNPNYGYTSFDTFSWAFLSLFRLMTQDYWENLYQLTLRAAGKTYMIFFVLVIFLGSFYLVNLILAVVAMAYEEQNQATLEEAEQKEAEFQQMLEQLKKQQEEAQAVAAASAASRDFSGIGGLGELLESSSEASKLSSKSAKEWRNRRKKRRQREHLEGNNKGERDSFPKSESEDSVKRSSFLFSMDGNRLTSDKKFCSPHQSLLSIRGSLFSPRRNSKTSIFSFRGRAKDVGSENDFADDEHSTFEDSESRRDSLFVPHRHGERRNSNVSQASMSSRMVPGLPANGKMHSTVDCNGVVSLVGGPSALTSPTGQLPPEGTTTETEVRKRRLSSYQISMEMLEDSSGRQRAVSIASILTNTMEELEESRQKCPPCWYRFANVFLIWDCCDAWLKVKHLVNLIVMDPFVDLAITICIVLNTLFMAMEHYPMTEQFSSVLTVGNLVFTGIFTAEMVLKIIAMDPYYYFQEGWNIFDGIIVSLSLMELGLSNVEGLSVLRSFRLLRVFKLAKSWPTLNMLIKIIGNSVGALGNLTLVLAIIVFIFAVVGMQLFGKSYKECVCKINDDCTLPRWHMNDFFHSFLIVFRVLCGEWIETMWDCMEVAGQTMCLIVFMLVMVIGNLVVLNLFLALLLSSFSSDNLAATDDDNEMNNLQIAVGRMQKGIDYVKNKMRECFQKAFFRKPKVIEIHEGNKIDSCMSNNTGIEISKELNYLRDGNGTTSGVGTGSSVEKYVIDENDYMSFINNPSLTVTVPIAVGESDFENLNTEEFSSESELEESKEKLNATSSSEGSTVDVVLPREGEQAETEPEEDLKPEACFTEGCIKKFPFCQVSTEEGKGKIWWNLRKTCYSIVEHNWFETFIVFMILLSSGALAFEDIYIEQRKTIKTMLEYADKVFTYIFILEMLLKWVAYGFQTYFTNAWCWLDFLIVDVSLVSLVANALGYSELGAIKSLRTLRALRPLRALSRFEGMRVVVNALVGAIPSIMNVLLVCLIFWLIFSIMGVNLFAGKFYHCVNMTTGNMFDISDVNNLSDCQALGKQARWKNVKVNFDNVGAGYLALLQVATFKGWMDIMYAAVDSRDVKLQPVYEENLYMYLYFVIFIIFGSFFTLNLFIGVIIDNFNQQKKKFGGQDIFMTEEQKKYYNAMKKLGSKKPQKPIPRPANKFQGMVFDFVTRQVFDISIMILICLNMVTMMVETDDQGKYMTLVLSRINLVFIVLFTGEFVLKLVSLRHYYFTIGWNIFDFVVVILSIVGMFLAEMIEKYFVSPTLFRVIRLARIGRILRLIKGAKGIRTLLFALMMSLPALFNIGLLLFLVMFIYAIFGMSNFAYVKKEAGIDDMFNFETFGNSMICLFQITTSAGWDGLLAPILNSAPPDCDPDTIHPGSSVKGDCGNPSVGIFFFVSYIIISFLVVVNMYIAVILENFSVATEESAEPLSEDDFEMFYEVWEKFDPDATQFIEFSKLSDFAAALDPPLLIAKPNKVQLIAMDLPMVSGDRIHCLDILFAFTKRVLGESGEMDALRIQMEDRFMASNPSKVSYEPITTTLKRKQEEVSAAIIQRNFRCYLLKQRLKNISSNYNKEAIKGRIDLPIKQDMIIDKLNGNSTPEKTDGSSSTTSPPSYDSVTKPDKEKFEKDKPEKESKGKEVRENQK

Row | SMILES | IC50 (CaV2.2) | IC50 (NaV1.3) | IC50 (NaV1.8)
1 | O=C(c1cnc(N2CCSCC2)nc1-c1ccccc1F)N(Cc1ccccc1)C1CCCC1 [compound 157] | 2 to 10 µM | 2 to 10 µM | > 10 µM
2 | COc1cccc(CN(C(=O)c2cnc(N3CCOCC3)nc2-c2ccccc2F)C(C)C)c1 [compound 74] | 2 to 10 µM | 2 to 10 µM | > 10 µM
3 | C=CCN(CC=C)c1ncc(C(=O)N(Cc2ccccc2)C(C)C)c(-c2ccccc2F)n1 [compound 156] | < 2 µM | 2 to 10 µM | 2 to 10 µM
4 | CCN(CCC#N)c1ncc(C(=O)N(Cc2ccccc2)C(C)C)c(-c2ccccc2F)n1 [compound 96] | < 2 µM | 2 to 10 µM | > 10 µM
5 | N=C(N)NCCCNC(=O)c1cnc(N2CCC3CCCCC3C2)nc1-c1ccccc1F (stereo not drawn) [compound 102] | > 10 µM | > 10 µM | > 10 µM
6 | Cc1nc(N2CCOCC2)nc(-c2ccccc2F)c1C(=O)N(Cc1ccc(C(C)(C)C)cc1)C(C)C [compound 31] | 2 to 10 µM | 2 to 10 µM | > 10 µM
7 | CC(C)N(C(=O)c1cnc(N2CCCCC2)nc1-c1ccccc1F)c1cccc2ccccc12 [compound 112] | > 10 µM | 2 to 10 µM | > 10 µM
8 | CC(C)N(C(=O)c1cnc(N2CCOCC2)nc1-c1ccccc1F)c1cccc([N+](=O)[O-])c1 [compound 178] | > 10 µM | > 10 µM | > 10 µM
9 | COc1cccc(N(C(=O)c2cnc(N3CCCCC3)nc2-c2ccccc2Cl)C2CCC2)c1 [compound 27] | 2 to 10 µM | 2 to 10 µM | > 10 µM
10 | CC(C)N(C(=O)c1cnc(N2CCC3CCCCC3C2)nc1-c1ccccc1F)c1ccccc1 (stereo not drawn) [compound 105] | 2 to 10 µM | 2 to 10 µM | > 10 µM
11 | CN1CCN(c2ncc(C(=O)N(Cc3ccccc3)C3CCCCC3)c(-c3ccccc3F)n2)CC1 [compound 147] | 2 to 10 µM | > 10 µM | > 10 µM
12 | CC(C)N(Cc1ccc(N2CCCC2)cc1)C(=O)c1cnc(N2CCC3CCCCC3C2)nc1-c1ccccc1F (stereo not drawn) [compound 137] | < 2 µM | > 10 µM | > 10 µM
13 | CC(C)N(Cc1ccccc1)C(=O)c1cnc(Nc2ccc3c(c2)OCO3)nc1-c1ccccc1F [compound 51] | 2 to 10 µM | 2 to 10 µM | > 10 µM
14 | CC(C)N(C(=O)c1cnc(N2CCC3CCCCC3C2)nc1-c1ccccc1F)c1ccc2c(c1)OCCO2 (stereo not drawn) [compound 151] | 2 to 10 µM | 2 to 10 µM | > 10 µM
15 | COc1ccc(CN(C(=O)c2cnc(N3CCSCC3)nc2-c2ccccc2F)C2CC2)cc1 [compound 164] | 2 to 10 µM | 2 to 10 µM | 2 to 10 µM
16 | CC(C)N(C(=O)c1cnc(N2CCCCC2)nc1-c1ccccc1F)c1cccc(O)c1 [compound 66] | 2 to 10 µM | > 10 µM | > 10 µM
17 | COc1cccc(N(C(=O)c2cnc(N3CCOCC3)nc2-c2ccccc2F)C(C)C)c1 [compound 160] | > 10 µM | > 10 µM | > 10 µM
18 | COc1cccc(N(C(=O)c2cnc(N3CCC4CCCCC4C3)nc2-c2ccccc2F)C(C)C)c1 (stereo not drawn) [compound 34] | 2 to 10 µM | 2 to 10 µM | > 10 µM
19 | COc1cccc(CN(C(=O)c2cnc(N3CCSCC3)nc2-c2ccccc2F)C(C)C)c1 [compound 131] | < 2 µM | 2 to 10 µM | 2 to 10 µM
20 | CC(C)N(Cc1ccc(N2CCCC2)cc1)C(=O)c1cnc(N2CCCCC2)nc1-c1ccccc1Cl [compound 198] | 2 to 10 µM | > 10 µM | > 10 µM
21 | O=C(NCCOc1ccccc1)c1cnc(N2CCOCC2)nc1-c1ccc(Oc2ccccc2)cc1 [compound 121] | 2 to 10 µM | 2 to 10 µM | > 10 µM
22 | COc1cccc(N(C(=O)c2cnc(N3CCCCC3)nc2-c2ccccc2Cl)C(C)C)c1 [compound 175] | 2 to 10 µM | 2 to 10 µM | > 10 µM
23 | COc1cccc(CN(C(=O)c2cnc(N3CCCCC3)nc2-c2ccccc2F)C(C)C)c1 [compound 20, 4-(2-fluorophenyl)-N-isopropyl-N-(3-methoxybenzyl)-2-(piperidin-1-yl)pyrimidine-5-carboxamide] | < 2 µM | 2 to 10 µM | 2 to 10 µM

Row | SMILES | IC50 (CaV2.2) | IC50 (NaV1.3) | IC50 (NaV1.8)
24 | COc1ccc(N(C(=O)c2cnc(N3CCC4CCCCC4C3)nc2-c2ccccc2F)C(C)C)cc1 (stereo not drawn) [compound 12] | < 2 µM | > 10 µM | > 10 µM
25 | CCC(COC)N(Cc1ccccc1)C(=O)c1cnc(N2CCOCC2)nc1-c1ccccc1F (stereo not drawn) [compound 113] | > 10 µM | 2 to 10 µM | > 10 µM
26 | O=C(c1cnc(N2CCOCC2)nc1-c1ccccc1F)N(Cc1cccc(C(F)(F)F)c1)C1CC1 [compound 195] | 2 to 10 µM | > 10 µM | > 10 µM
27 | Cc1nc(N2CCCCC2)nc(-c2ccccc2F)c1C(=O)N(Cc1ccc2c(c1)CCO2)C1CC1 [compound 192] | > 10 µM | > 10 µM | > 10 µM
28 | Cc1nc(N2CCOCC2)nc(-c2ccccc2F)c1C(=O)N(Cc1ccccc1)C1CC1 [compound 145] | 2 to 10 µM | 2 to 10 µM | > 10 µM
29 | O=C(c1cnc(N2CCSCC2)nc1-c1ccccc1F)N(Cc1ccc(F)cc1)C1CC1 [compound 48] | 2 to 10 µM | 2 to 10 µM | > 10 µM
30 | CC1CN(c2ncc(C(=O)N(Cc3ccccc3)C(C)C)c(-c3ccccc3F)n2)CC(C)O1 (stereo not drawn) [compound 69] | 2 to 10 µM | > 10 µM | > 10 µM
31 | CC(C)N(C(=O)c1cnc(N2CCOCC2)nc1-c1ccccc1F)c1ccc2c(c1)OCCO2 [compound 67] | > 10 µM | > 10 µM | > 10 µM
32 | COc1cc2c(cc1OC)CN(C(=O)c1cnc(N3CCOCC3)nc1-c1ccccc1F)CC2 [compound 144] | > 10 µM | > 10 µM | > 10 µM
33 | CC(=O)Nc1ccc(-c2nc(N3CCOCC3)ncc2C(=O)N(Cc2ccccc2)C(C)C)cc1 [compound 168] | > 10 µM | > 10 µM | > 10 µM
34 | CC(C)N(Cc1ccccc1)C(=O)c1cnc(N2CCSCC2)nc1-c1ccccc1F [compound 98] | < 2 µM | 2 to 10 µM | 2 to 10 µM
35 | COc1ccc(CN(C(=O)c2cnc(N3CCC4CCCCC4C3)nc2-c2ccccc2F)C2CC2)cc1 (stereo not drawn) [compound 184] | 2 to 10 µM | > 10 µM | > 10 µM
36 | O=C(c1cnc(N2CCOCC2)nc1-c1ccccc1F)N(Cc1ccc(C(F)(F)F)cc1)C1CC1 [compound 124] | 2 to 10 µM | 2 to 10 µM | > 10 µM
37 | O=C(c1cnc(N2CCC3CCCCC3C2)nc1-c1ccccc1F)N(Cc1cccc(-c2ccncc2)c1)C1CC1 (stereo not drawn) [compound 114] | < 2 µM | > 10 µM | > 10 µM
38 | CC(C)N(Cc1ccc2c(c1)OCO2)C(=O)c1cnc(N2CCC3CCCCC3C2)nc1-c1ccccc1F (stereo not drawn) [compound 120] | < 2 µM | 2 to 10 µM | > 10 µM
39 | CC(C)N(Cc1ccccc1)C(=O)c1cnc(NCc2cccc3ccccc23)nc1-c1ccccc1F [compound 135] | 2 to 10 µM | > 10 µM | > 10 µM
40 | Cc1nc(N2CCCCC2)nc(-c2ccccc2F)c1C(=O)N(Cc1ccc(C(C)(C)C)cc1)C(C)C [compound 32] | 2 to 10 µM | 2 to 10 µM | > 10 µM
41 | CC(C)N(Cc1ccccc1)C(=O)c1cnc(N2Cc3ccccc3C2)nc1-c1ccccc1F [compound 130] | 2 to 10 µM | 2 to 10 µM | > 10 µM
42 | CC(C)N(C(=O)c1cnc(N2CCCCC2)nc1-c1ccccc1Cl)c1cccc(C(C)(C)C)c1 [compound 3] | > 10 µM | 2 to 10 µM | > 10 µM
43 | CC(C)N(Cc1ccccc1)C(=O)c1cnc(N2CCOCC2)nc1-c1cccc(/C=C/C(=O)O)c1 [compound 17] | > 10 µM | > 10 µM | > 10 µM
44 | CN1CCN(c2ncc(C(=O)N(Cc3ccccc3)C3CCCC3)c(-c3ccccc3F)n2)CC1 [compound 148] | 2 to 10 µM | > 10 µM | > 10 µM
45 | CC(C)N(Cc1ccccc1)C(=O)c1cnc(NCCc2cccc(C(F)(F)F)c2)nc1-c1ccccc1F [compound 173] | < 2 µM | 2 to 10 µM | > 10 µM
